Turning to `CCCn1c(=O)c2c(N)n(C(=O)OC)nc2c2ccccc21`, the melting point – broadly, the temperature, or range, at which the solid turns liquid – is 180 to 184 °C.

Turning to `Cn1cc(C(=O)NCc2ccc(Cl)cc2)c(=O)c2cc(COCC(=O)c3ccccc3)sc21`, the melting point is 209 °C.

`COc1ccc(C(=O)CCCCCBr)c(Cl)c1Cl` had a melting point of 52 to 53 °C. Turning to `Nc1c(OCCNCc2ccccc2)cccc1[N+](=O)[O-]`, the melting point lay within 33 to 60 °C. Molecule `NS(=O)(=O)c1cccc(-c2cccc(-c3nc(-c4ccc(C(F)(F)F)nc4)cc(C(F)(F)F)n3)c2)c1` yielded a melting point of 211 °C. With `Cc1cc(-c2nncc3c(C(C)(C)C)c(OCc4cccnc4)nn23)no1`, the melting point fell in the range of 139 to 141 °C. Regarding `N#Cc1cccc(N(C(=O)NC2CCN(Cc3ccccc3)CC2)C2CCCC2)c1`, the melting point lay in the range of 165 to 166 °C. Take `CC(C)CCc1c(-c2ccc(S(N)(=O)=O)cc2)cnn(-c2ccc(F)c(F)c2)c1=O`: the melting point was in the range of 171 to 173 °C. The molecule `CCc1cccc(C)c1CNc1nc(OCCOC)cc2c1nc(C)n2C` showed a melting point of 105 °C.

On to `CN1CCN(CC(=O)O)CC1`, for which the melting point was 158 to 160 °C.

Molecule `CCN(C(=O)C1CC1)c1cccc(-c2ccnc3c(C(=O)c4ccco4)cnn23)c1` displayed a melting point of 182 to 184 °C. Turning to `Cc1ccc(Nc2c(F)cccc2C(F)(F)F)c(CC(=O)O)c1`, the melting point was in the range of 155 to 156 °C. The same measure for `Cc1ccc(NC(=O)c2cccc(C(F)(F)F)c2)cc1-c1ccc2ncsc2c1`: 94 to 96 °C; for `O=C(CCCCC1CCSS1)Nc1nc(=S)ss1` (stereo not drawn): 158 to 161 °C; for `Cc1cccnc1NC(N)=S`: 152 to 154 °C.

Take `CN(C)CCCC1(O)c2ccccc2COc2ccc(C3=NC(C)(C)CO3)cc21` (stereo not drawn): the melting point lay within 166 to 167 °C.

For `CCCc1nn(C)c2c(=O)[nH]c(Cc3ccc(NC=O)cc3)nc12`, the melting point fell in the range of 260 to 261 °C. On to `O=C(NCc1ccc(Cl)cc1Cl)N1CCc2[nH]cnc2C1CCC1CCCCC1` (stereo not drawn), for which the melting point fell in the range of 185 to 187 °C. `COc1ccc([N+](=O)[O-])cc1NC(=O)CC(=O)C1(C)COC(C)(C)OC1` had a melting point of 113 to 115 °C.

Consider `Cc1nc(-n2cnn(CCNCc3ccc(F)cc3)c2=O)sc1C(=O)NCc1cccnc1`, for which the melting point was 106 to 107 °C. As for `Cc1nc2cc3c(cc2c(=O)[nH]1)C(N(C)c1ccc(C(=O)NC(C(=O)O)c2ccc(CC(=O)O)cc2)c(F)c1)CC3` (mixture of isomers), the melting point lay within 196 to 200 °C. Then `Cc1c(C)c(N2CCN(c3c(C)c(C)c4c(c3C)CC(C)(C)O4)CC2)c(C)c2c1OC(C)(C)C2`, with 256 to 260 °C. Take `COc1ccc(C(=O)C(CC(=O)O)c2ccccc2)cc1` (stereo not drawn): the melting point was in the range of 157 to 159 °C. Then `N#Cc1c(N2CCCCC2)cc(-c2cccs2)c2c1Cc1ccccc1-2`, with 148 to 150 °C. The same measure for `N#CCNC(=O)C1(NC(=O)c2ccc(N3CCNCC3)cc2)CCCCC1`: 206 to 210 °C. Then `CN(C)C(=O)COc1ccc2c(c1)C[C@@H](NC[C@H](O)c1ccc(O)cc1)CC2`, with 169 to 172 °C. `NC(=O)N(O)CCNC(=O)c1ccc2ccccc2n1` showed a melting point of 189 to 190 °C. `COC(=O)c1ccc(O)c(C(=O)CC(=O)c2cccnc2)c1` displayed a melting point of 200 to 202 °C. Consider `CC1CCN(c2ccc([N+](=O)[O-])cc2C(=O)c2ccccc2)CC1`, for which the melting point turned out to be 81 °C. The same measure for `O=C(O)c1ccc(C(c2ccccc2)(c2ccc(C(=O)O)c(C(=O)O)c2)C(F)(F)F)cc1C(=O)O`: 210 to 213 °C; for `CCc1nnc(C2=C(OC(=O)c3ccccc3)c3ccccc3S(=O)(=O)N2C)o1`: 191 to 192 °C. The molecule `CN1CCC(OC2c3ccccc3CCn3c2nc(-c2ccccc2)c3-c2ccccc2)CC1` (stereo not drawn) yielded a melting point of 90 °C. `O=C(O)C=Cc1ccc(CCc2ccncc2)cc1`: the melting point was over 300 °C.
